As usually defined, the IC50 is the concentration at which inhibition is half-maximal. Lower therefore signals greater potency in that assay. By Dmax is commonly meant the largest share of the target that was removed. A lower Dmax goes with shallow degradation.

The results in this text go back to US20240368159A1, “HPK1 DEGRADERS, COMPOSITIONS COMPRISING THE HPK1 DEGRADER, AND METHODS OF USING THE SAME” (BIOFRONT LTD, priority 2021, published 2024).

Experiment [1] has as its target T1, HPK1 protein (Homo sapiens, UniProt Q92918).
T1 construct: purchased Signal Chem M23-11G-10
T1 sequence (Q92918 1-346 limits assumed): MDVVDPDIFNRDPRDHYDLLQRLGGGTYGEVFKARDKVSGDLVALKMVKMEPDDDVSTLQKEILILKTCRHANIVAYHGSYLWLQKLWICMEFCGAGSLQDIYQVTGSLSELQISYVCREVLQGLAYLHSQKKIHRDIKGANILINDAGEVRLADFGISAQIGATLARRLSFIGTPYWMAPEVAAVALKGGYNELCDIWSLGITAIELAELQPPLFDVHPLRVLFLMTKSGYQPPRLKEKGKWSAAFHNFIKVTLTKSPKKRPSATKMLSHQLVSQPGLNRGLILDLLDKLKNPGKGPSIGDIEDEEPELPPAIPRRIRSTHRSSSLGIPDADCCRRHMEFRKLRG
As to the kind of experiment: HPK1 enzyme inhibition assay (ADP-Glo). The class given is biochemical. The settings on record: MBP substrate, ATP, ADP-Glo readout. The procedure, abridged:
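Recombinant human HPK1 preincubated with compound 60 min at 25 °C, then reaction with MBP (0.2 ug/ul, 2× stock) and ATP (20 μM, 2× stock) 60 min at 25 °C. ADP formed detected by ADP-Glo after ATP depletion and conversion to ATP; IC50 calculated from signal.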
(In general: ADP-Glo turns the ADP formed in a reaction into a luminescent signal.)

Experiment [2] concerns the target T2, HPK1 protein (Mus musculus, UniProt P70218).
T2 construct: the CD3+ T cell population was isolated from spleenocytes of mice; endogenous in cells; host or cells: primary mouse splenic CD3+ (pan) T cells
T2 sequence (P70218 1-827): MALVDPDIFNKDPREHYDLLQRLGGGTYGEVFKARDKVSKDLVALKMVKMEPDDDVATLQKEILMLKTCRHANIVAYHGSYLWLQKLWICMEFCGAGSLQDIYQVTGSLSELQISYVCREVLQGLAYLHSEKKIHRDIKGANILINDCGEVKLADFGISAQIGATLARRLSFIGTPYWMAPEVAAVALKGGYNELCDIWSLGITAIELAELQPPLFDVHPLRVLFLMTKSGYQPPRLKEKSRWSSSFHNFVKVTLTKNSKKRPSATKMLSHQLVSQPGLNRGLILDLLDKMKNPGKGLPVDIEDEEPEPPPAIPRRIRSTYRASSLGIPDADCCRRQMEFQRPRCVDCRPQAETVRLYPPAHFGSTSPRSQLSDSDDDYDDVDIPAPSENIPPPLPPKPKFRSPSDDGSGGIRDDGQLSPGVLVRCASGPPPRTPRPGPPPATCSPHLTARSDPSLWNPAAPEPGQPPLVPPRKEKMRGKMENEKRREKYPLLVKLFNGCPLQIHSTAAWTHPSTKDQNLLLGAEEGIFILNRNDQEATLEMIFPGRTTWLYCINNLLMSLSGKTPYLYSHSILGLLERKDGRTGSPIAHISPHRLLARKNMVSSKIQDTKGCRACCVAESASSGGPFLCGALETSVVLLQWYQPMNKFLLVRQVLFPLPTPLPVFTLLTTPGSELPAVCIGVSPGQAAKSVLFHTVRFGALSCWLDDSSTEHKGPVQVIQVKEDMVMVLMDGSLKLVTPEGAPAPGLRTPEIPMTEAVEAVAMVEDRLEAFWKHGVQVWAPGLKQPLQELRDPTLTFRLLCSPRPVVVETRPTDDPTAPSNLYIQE
As to the kind of experiment: HPK1 protein degradation in mouse pan T cell (western blot). It counts as cell-based. The settings on record: 18 h incubation. As for the experimental part: (§1) HPK1 protein degradation in mouse pan T cell: the CD3+ T cell population was isolated from spleenocytes of mice by using Pan T cell isolation kit from Miltenyi Biotec (130-095-130) following manufacture's instruction. The isolated T cells were then incubated with a variety of concentrations of compound. After incubation for 18 h, the cells were collected and lysed. The protein concentration was determined by BCA protein assay kit from Thermo (23227). The HPK1 protein level was determined by western blots, using anti-human HPK1 polyclonal antibody from CST (4472). Proteins were loaded into each well of the pre-casting gels and subjected to electrophoretic separation by SDS-PAGE. The protein resolved by SDS-PAGE were transferred to PVDF, blocked by 5% skim milk and probed with anti-human HPK1 antibody or β-actin antibody from CST (3700S), using following standard western blotting procedure.

For experiment [3], the target named is T3, HPK1 protein (Homo sapiens, UniProt Q92918).
T3 construct: Frozen human PBMC were purchased from Shanghai OribioTech; host or cells: human PBMC
As to the kind of experiment: HPK1 protein degradation in human PBMC (western blot). The settings on record: 18 h incubation. It counts as cell-based. As to the method: as §1, with “human PBMC: Frozen human PBMC were purchased” for “mouse pan T cell: the CD3+ T cell population was isolated”, “Shanghai OribioTech and recovered with culture medium (RMPI1640) prior to use.” for “spleenocytes of mice by using Pan T cell isolation kit from Miltenyi Biotec (130-095-130) following manufacture's instruction.”, “The” for “The isolated T”, “(4472S).” for “(4472).”, “milk,” for “milk”, “using” for “using following”
T3 sequence (Q92918 whole entry): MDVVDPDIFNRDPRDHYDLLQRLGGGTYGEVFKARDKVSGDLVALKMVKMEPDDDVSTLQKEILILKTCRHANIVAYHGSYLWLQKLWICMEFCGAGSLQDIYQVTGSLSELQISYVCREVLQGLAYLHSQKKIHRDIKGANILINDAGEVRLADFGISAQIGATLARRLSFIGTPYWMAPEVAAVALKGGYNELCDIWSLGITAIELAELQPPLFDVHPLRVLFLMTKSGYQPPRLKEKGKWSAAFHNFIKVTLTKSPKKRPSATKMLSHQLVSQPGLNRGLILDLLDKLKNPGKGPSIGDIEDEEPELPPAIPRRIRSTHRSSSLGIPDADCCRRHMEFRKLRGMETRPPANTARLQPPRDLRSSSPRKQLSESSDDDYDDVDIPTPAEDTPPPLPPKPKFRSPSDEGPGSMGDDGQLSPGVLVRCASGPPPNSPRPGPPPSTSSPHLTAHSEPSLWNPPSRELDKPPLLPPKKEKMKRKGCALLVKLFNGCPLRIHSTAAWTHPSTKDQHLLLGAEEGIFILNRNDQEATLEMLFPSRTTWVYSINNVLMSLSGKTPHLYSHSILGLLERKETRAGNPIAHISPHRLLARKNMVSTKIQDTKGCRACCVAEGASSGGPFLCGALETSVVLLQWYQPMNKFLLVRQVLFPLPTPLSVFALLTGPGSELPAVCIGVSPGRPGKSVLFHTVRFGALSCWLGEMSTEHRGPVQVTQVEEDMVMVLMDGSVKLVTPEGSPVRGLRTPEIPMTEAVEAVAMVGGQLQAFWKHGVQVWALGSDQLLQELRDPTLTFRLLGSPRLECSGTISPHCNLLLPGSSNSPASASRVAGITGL

Structures are written as SMILES.

Consider `CCc1c[nH]c2ncc(-c3cccc(N4CCN(CCCN5CC=C(c6ccc7c(N8CCC(=O)NC8=O)nn(C)c7c6)CC5)CC4=O)c3)c(Cl)c12` [Example 74, 1-(6-(1-(3-(4-(3-(4-chloro-3-ethyl-1H-pyrrolo[2,3-b]pyridin-5-yl)phenyl)-3-oxopiperazin-1-yl)propyl)-1,2,3,6-tetrahydropyridin-4-yl)-1-methyl-1H-indazol-3-yl)dihydropyrimidine-2,4 (1H,3H)-dione], for which the 50% inhibitory concentration (IC50) against HPK1 protein [1] was no more than 0.01 µM. The maximal degradation (Dmax) at HPK1 protein [2] was found to be 91%; at HPK1 protein [3], 86%.
The like results for `O=C1CCC(N2Cc3ccc(N4CCC(OCC(=O)N5CCN(c6cccc(-c7cnc8[nH]cc(C9CC9)c8c7Cl)c6)C(=O)C5)CC4)cc3C2=O)C(=O)N1` (stereo not drawn) [Example 46] were, in that order, no more than 0.01 µM, 90% and 51%.
`O=C1CCC(N2C(=O)c3cc(F)c(N4CCC(CCN5CCN(c6cccc(-c7cnc8[nH]cc(CC(F)F)c8c7Cl)c6)C(=O)C5)CC4)cc3C2=O)C(=O)N1` (stereo not drawn) [Example 55] yielded an IC50 on HPK1 protein [1] of 0.1 to 1 µM. The figures for the maximal degradation (Dmax) on HPK1 protein [2] and on HPK1 protein [3] were 95% and 55%, respectively.
The like results for `CC(OC1CCN(c2cc3c(cc2F)C(=O)N(C2CCC(=O)NC2=O)C3=O)CC1)C(=O)N1CCN(c2cccc(-c3cnc4[nH]cc(C5CC5)c4c3Cl)c2)C(=O)C1` (stereo not drawn) [Example 48] were, in that order, 0.01 to 0.1 µM, 95% and 57%.
In the same order, the values of `CN(CC(=O)N1CCN(c2cccc(-c3cnc4[nH]cc(C5CC5)c4c3Cl)c2)C(=O)C1)C1CCN(c2cc3c(cc2F)C(=O)N(C2CCC(=O)NC2=O)C3=O)CC1` (stereo not drawn) [Example 42] are 0.01 to 0.1 µM, 95% and 40%.
`CCc1c[nH]c2ncc(-c3cccc(N4CCN(CCCN5CCN(c6ccc7c(N8CCC(=O)NC8=O)cccc7c6)CC5)CC4=O)c3)c(Cl)c12` [Example 76, 1-(6-(4-(3-(4-(3-(4-chloro-3-ethyl-1H-pyrrolo[2,3-b]pyridin-5-yl)phenyl)-3-oxopiperazin-1-yl)propyl)piperazin-1-yl)naphthalen-1-yl)dihydropyrimidine-2,4 (1H,3H)-dione] yielded a half-maximal inhibitory concentration (IC50) at HPK1 protein [1] of 0.01 to 0.1 µM. For the same compound, the greatest degradation seen (Dmax) on HPK1 protein [2] was determined as 95%; on HPK1 protein [3], 74%.
In the same order, the values of `O=C1CCC(N2C(=O)c3cc(F)c(N4CCC(CCN5CCN(c6cccc(-c7cnc8[nH]cc(C9CC9)c8c7Cl)c6)C(=O)C5)CC4)cc3C2=O)C(=O)N1` (stereo not drawn) [Example 45] are 0.01 to 0.1 µM, 90% and 78%.
Turning to `O=C1CCC(N2C(=O)c3cc(F)c(N4CCN(C5CC(CN6CCN(c7cccc(-c8cnc9[nH]cc(C%10CC%10)c9c8Cl)c7)C(=O)C6)C5)CC4)cc3C2=O)C(=O)N1` (stereo not drawn) [Example 51, 5-(4-(3-((4-(3-(4-chloro-3-cyclopropyl-1H-pyrrolo[2,3-b]pyridin-5-yl)phenyl)-3-oxopiperazin-1-yl)methyl)cyclobutyl)piperazin-1-yl)-2-(2,6-dioxopiperidin-3-yl)-6-fluoroisoindoline-1,3-dione], the 50% inhibitory concentration (IC50) on HPK1 protein [1] was 0.01 to 0.1 µM. The Dmax on HPK1 protein [2] came out at 95%; on HPK1 protein [3], 96%.
In the same order, the values of `CCc1c[nH]c2ncc(-c3cccc(N4CCN(CCOC5CCN(c6cc7c(cc6F)C(=O)N(C6CCC(=O)NC6=O)C7=O)CC5)CC4=O)c3)c(Cl)c12` (stereo not drawn) [Example 26] are 0.01 to 0.1 µM, 91% and 86%.
In the same order, the values of `CCc1c[nH]c2ncc(-c3cccc(N4CCN(CC5CCN(c6cc7c(cc6F)C(=O)N(C6CCC(=O)NC6=O)C7=O)CC5)CC4=O)c3)c(Cl)c12` (stereo not drawn) [Example 38, 5-(4-((4-(3-(4-chloro-3-ethyl-1H-pyrrolo[2,3-b]pyridin-5-yl)phenyl)-3-oxopiperazin-1-yl)methyl)piperidin-1-yl)-2-(2,6-dioxopiperidin-3-yl)-6-fluoro isoindoline-1,3-dione] are 0.01 to 0.1 µM, 90% and 30%.
In the case of `CCc1c[nH]c2ncc(-c3cccc(N4CCN(S(=O)(=O)CCN5CCN(c6ccc7c(c6)C(=O)N(C6CCC(=O)NC6=O)C7=O)CC5)CC4=O)c3)c(Cl)c12` (stereo not drawn) [Example 100], the IC50 against HPK1 protein [1] is 0.01 to 0.1 µM. Moreover, the values for the Dmax at HPK1 protein [2] and on HPK1 protein [3] were 90% and 93%, respectively.
In the same order, the values of `O=C1CCC(N2Cc3cc(N4CCC(OCC(=O)N5CCN(c6cccc(-c7cnc8[nH]cc(C9CC9)c8c7Cl)c6)C(=O)C5)CC4)ccc3C2=O)C(=O)N1` (stereo not drawn) [Example 47] are no more than 0.01 µM, 95% and 85%.
The like results for `CCc1c[nH]c2ncc(-c3cccc(N4CCN(C(=O)CCOC5CCN(c6ccc7c(c6)C(=O)N(C6CCC(=O)NC6=O)C7=O)CC5)CC4=O)c3)c(Cl)c12` (stereo not drawn) [Example 32] were, in that order, 0.01 to 0.1 µM, 90% and 78%.
In the same order, the values of `O=C1CCC(N2C(=O)c3cc(F)c(N4CCC(OCCCN5CCN(c6cccc(-c7cnc8[nH]cc(C9CC9)c8c7Cl)c6)C(=O)C5)CC4)cc3C2=O)C(=O)N1` (stereo not drawn) [Example 40, 5-(4-(3-(4-(3-(4-chloro-3-cyclopropyl-1H-pyrrolo[2,3-b]pyridin-5-yl)phenyl)-3-oxopiperazin-1-yl)propoxy)piperidin-1-yl)-2-(2,6-dioxopiperidin-3-yl)-6-fluoroisoindoline-1,3-dione] are 0.01 to 0.1 µM, 95% and 88%.
Consider `O=C1CCC(N2C(=O)c3cc(F)c(N4CCC(OCCCN5CCN(c6cccc(-c7cnc8[nH]cc(CC(F)F)c8c7Cl)c6)C(=O)C5)CC4)cc3C2=O)C(=O)N1` (stereo not drawn) [Example 39, 5-(4-(3-(4-(3-(4-chloro-3-(2,2-difluoroethyl)-1H-pyrrolo[2,3-b]pyridin-5-yl)phenyl)-3-oxopiperazin-1-yl)propoxy)piperidin-1-yl)-2-(2,6-dioxopiperidin-3-yl)-6-fluoroisoindoline-1,3-dione], for which, on HPK1 protein [1], the IC50 lay in the range of 0.1 to 1 µM. Moreover, the maximal degradation (Dmax) at HPK1 protein [2] turned out to be 80%; on HPK1 protein [3], 85%.
The compound `O=C1CCC(N2C(=O)c3ccc(N4CCC(OCC(=O)N5CCN(c6cccc(-c7cnc8[nH]cc(C9CC9)c8c7Cl)c6)C(=O)C5)CC4)cc3C2=O)C(=O)N1` (stereo not drawn) [Example 31] showed an IC50 against HPK1 protein [1] of 0.01 to 0.1 µM. Also, the Dmax came to 95% at HPK1 protein [2] and 98% on HPK1 protein [3].
In the same order, the values of `O=C1CCC(N2C(=O)c3cc(F)c(N4CCN(CCCN5CCN(c6cccc(-c7cnc8[nH]cc(CC(F)F)c8c7Cl)c6)C(=O)C5)CC4)cc3C2=O)C(=O)N1` (stereo not drawn) [Example 41] are 0.01 to 0.1 µM, 95% and 90%.
